According to ChEMBL document CHEMBL1140320, “Second generation transition state analogue inhibitors of human 5'-methylthioadenosine phosphorylase” (J Med Chem, 2005):

Experiments:
[1] = molecular target: T1, S-methyl-5'-thioadenosine phosphorylase (Homo sapiens, UniProt Q13126); test: Inhibition of human MTAP as initial dissociation constant
T1 sequence (Q13126 whole entry): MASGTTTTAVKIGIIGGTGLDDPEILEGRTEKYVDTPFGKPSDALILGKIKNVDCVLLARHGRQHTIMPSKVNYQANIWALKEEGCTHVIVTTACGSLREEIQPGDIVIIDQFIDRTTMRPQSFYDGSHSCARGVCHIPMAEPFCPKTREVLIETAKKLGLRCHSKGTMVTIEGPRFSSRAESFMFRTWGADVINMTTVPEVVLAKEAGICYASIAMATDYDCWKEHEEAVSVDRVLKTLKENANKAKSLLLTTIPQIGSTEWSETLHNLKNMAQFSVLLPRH

[2] = molecular target: T1, S-methyl-5'-thioadenosine phosphorylase; test: Inhibition of human MTAP as equilibrium dissociation constant
[3] = molecular target: T1, S-methyl-5'-thioadenosine phosphorylase; test: Inhibition of human MTAP as equilibrium dissociation constant; ND=no slow-onset phase
[4] = substrate: CSC[C@H]1O[C@@H](n2cnc3c(N)ncnc32)[C@H](O)[C@@H]1O; test: Km for human MTAP

## CCCC1CN(Cc2c[nH]c3c2N=CNC3N)CC1O (stereo not drawn)
[1]
  Ki: 22 nM
[2]
  Ki: 3 nM

## NC1NC=Nc2c(CN3CC(O)C(CSc4ccc(F)cc4)C3)c[nH]c21 (stereo not drawn)
[1]
  Ki: 0.81 nM
[2]
  Ki: 0.16 nM

## CCCSCC1CN(Cc2c[nH]c3c2NC=NC3N)CC1O (stereo not drawn)
[1]
  Ki: 1.3 nM
[2]
  Ki: 0.12 nM

## Nc1ncnc2c(CN3CC(O)C(CSCc4ccccc4)C3)n[nH]c12 (stereo not drawn)
[1]
  Ki: 55 nM
[3]
  Ki: No slow-onset phase observed

## NC1NC=Nc2c(CN3CC(O)C(CSc4cccc(Cl)c4)C3)c[nH]c21 (stereo not drawn)
[1]
  Ki: 2 nM
[2]
  Ki: 0.27 nM

## NC1N=CNc2c(CN3CC(O)C(CSc4ccc(Cl)cc4)C3)c[nH]c21 (stereo not drawn)
[1]
  Ki: 0.36 nM
[2]
  Ki: 0.01 nM

## NC1N=CNc2c(CN3CC(O)C(CSc4ccncc4)C3)c[nH]c21 (stereo not drawn)
[1]
  Ki: 2 nM
[2]
  Ki: 0.16 nM

## Nc1[nH]cnc2c(CN3CC(O)C(CSCc4ccccc4)C3)cnc1-2 (stereo not drawn)
[1]
  Ki: 1.4 nM
[2]
  Ki: 0.7 nM

## CCSCC1CN(Cc2c[nH]c3c2N=CNC3N)CC1O (stereo not drawn)
[1]
  Ki: 0.65 nM
[2]
  Ki: 0.034 nM

## COCC1CN(Cc2c[nH]c3c2N=CNC3N)CC1O (stereo not drawn)
[1]
  Ki: 14 nM
[2]
  Ki: 8 nM

## NC1NC=Nc2c(CN3CC(O)C(CSC4CCCCC4)C3)c[nH]c21 (stereo not drawn)
[1]
  Ki: 0.76 nM
[2]
  Ki: 0.37 nM

## CSCC1CN(Cc2c[nH]c3c(N)ncnc23)CC1O (stereo not drawn)
[1]
  Ki: 1.7 nM
[2]
  Ki: 0.09 nM

## NC1NC=Nc2c(CN3CC(O)C(CSc4ccccc4)C3)c[nH]c21 (stereo not drawn)
[1]
  Ki: 1.5 nM
[2]
  Ki: 0.17 nM

## CCCCSCC1CN(Cc2c[nH]c3c2N=CNC3N)CC1O (stereo not drawn)
[1]
  Ki: 0.28 nM
[2]
  Ki: 0.11 nM

## CC(C)SCC1CN(Cc2c[nH]c3c2NC=NC3N)CC1O (stereo not drawn)
[1]
  Ki: 0.9 nM
[2]
  Ki: 0.26 nM

## NC1N=CNc2c(CN3CC(O)C(COCc4ccccc4)C3)c[nH]c21 (stereo not drawn)
[1]
  Ki: 85 nM
[2]
  Ki: 42 nM

B1: S-methyl-5'-thioadenosine phosphorylase (Homo sapiens), Q13126 (protein)
chain: T1 sequence (Q13126 whole entry)
[4]
  Km: 5 µM
